Results taken from US20240279711A1, “MARKER FOR DNA DAMAGE IN PROXIMITY OF TRANSCRIBED GENOMIC LOCI AND METHODS FOR IDENTIFYING AND/OR QUANTIFYING THESE DNA DAMAGES” (FONDAZIONE ISTITUTO ITALIANO DI TECNOLOGIA, priority 2021, published 2024).

How the values were obtained:
Assay type in all cases: cell-based
[1] = tested on: mCherry-CDK12 recruitment at endogenous DDR sites in RPE-iCUT cells; experiment: CDK12 recruitment to CRISPR-Cas9 induced DSBs at endogenous loci; conditions: DSBs 1 kb and 2 kb upstream of TSS of POLRIB, IFRD2, MCM2, DRB 100 uM, 3 hours before harvesting
Experimental: RPE iCUT cells, stably expressing inducible CRISPER-Cas9, were transfected with mCherry-CDK12. Cas9 was activated by doxycycline and SHIELD-1 for 16 hours. […] 3 hours before harvesting, the cells were treated with DRB (100 uM). The bar graph reports the percentage of cells showing co-localisation of CDK12 and γH2A. X in the indicated genomic regions (mean of two independent experiments, 40 cells were considered for each region).
For the site-specific induction of a DSB at selected endogenous genomic loci, we used RPE-iCUT cells: immortalised retinal epithelial cells engineered for CRISPR-CAS9 expression and conditional activation. These cells were transfected with mCherry-CDK12 and a set of sgRNAs (Alt-R-gRNA) designed to induce DBS in three expressed genes (MCM2, IFRD2 and POLRIB), in two regions upstream of their site of transcriptional onset (TSS), or designed to induce DSB in two genomic regions distal to transcribed loci. The induction of DSBs by CRISPR-Cas9 was assessed by immunofluorescence of γH2A. X, while the recruitment of CDK12 to DNA-damaged sites was assessed by microscopy analysis of mCherry signals. […] As a control, DSBs induced in regions distal to transcribed loci show low levels of CDK12 recruitment (close to the background signal), which are not altered by RNA-pol2 inhibitors (FIG. 8).

[2] = tested on: mCherry-CDK12 recruitment to programmed DSBs in U2OS-TRE-I-Sce1 cells; experiment: CDK12 recruitment to programmed Sce-1 DSB, co-localisation with γH2A.X; conditions: U2OS-TRE-I-SceI cells, doxycycline, 3 hours
Experimental: FIGS. 7A and 7B show how CDK12 recruitment at a DNA-damaged locus is transcriptionally dependent. U2OS-TRE-I-SceI cells were transfected with plasmid vectors encoding mCherry-CDK12, p-rtTA, YFP-MS2 or I-Sce1. The cells were treated with doxycycline, which is required for the induction of the rtTA transcription factor that activates the transcription of the MS2 reporter gene. RNA-pol2 activity was inhibited by DRB (100 uM) or TRIPTOLIDE (TPL, 1 uM) for 3 hours. The cells were fixed with 4% PFA for 15 minutes and immunostained for γH2A. X. The table in FIG. 7B reports the percentage of cells showing co-localisation between CDK12 and γH2A. X (mean of two experiments).
U2OS-TRE-I-Sce-1 cells were transfected with plasmids encoding (i) YFP-MS2 (a chimeric gene produced by the MS2 CDNA fused with the YFP cDNA), (ii) mCherry-CDK12 (a chimeric fusion of mCherry and CDK12), (iii) rtTA (a doxycycline-activated transcription factor) and (iv) the restriction enzyme Sce-1. Transcription was activated by the addition of doxycycline and monitored by detecting subcellular positive nuclear foci for YFP signal. Sce-1-induced DSBs were visualised by immunofluorescence staining specific for the phosphorylated form of histone H2Ax (γH2A. X), a marker for DNA break detection and DNA damage response (DDR) signalling pathway activation. […]

[3] = tested on: mCherry-CDK12 recruitment at damaged DNA sites in U2OS cells; experiment: Laser micro-irradiation, time-lapse microscopy of mCherry-CDK12 recruitment to damaged DNA sites; conditions: for recruitment of mCherry-CDK12 at laser-damaged areas: 3 hours before laser micro-irradiation; for localisation of CDK12 at laser-damaged sites: 2 hours before laser microirradiation; for localisation of CDK12 at laser-damaged DNA sites: 1 hour before laser microirradiation
Experimental: FIGS. 6A and 6B show how the recruitment of CDK12 to DDR sites is transcription-dependent. U2OS cells, transfected with mCherry-CDK12 plasmid, were first treated with DRB (100 uM), Triptolide (1 uM) or DMSO (mock) for 3 hours and then micro-irradiated by laser. Selected regions within the nucleus were micro-irradiated with 10 iterations of a laser at 405 nm with 100% power. The cells were subjected to quantitative analysis using time-lapse microscopy.
U2OS cells were transfected with the mCherry-CDK12 encoding plasmid and treated with THZ531 (100 nM) or DMSO for 24 hours. The cells were previously treated with BrdU for 24 hours to sensitise the DNA to breaks by laser. To generate localised DNA damage, selected regions within the nucleus were micro-irradiated with 10 iterations of a laser at 405 nm with 100% power. The cells were then subjected to time-lapse microscopic analysis. For each condition, at least 30 cells were considered. FIG. 9A reports representative images used for the analysis shown in the graph of FIG. 9B.
U2OS cells were transfected with mCherry-CDK12 plasmid and pre-treated with KU-55933 (ATMi; 10 μM), VE-821 (ATRi; 10 µM) or DMSO (mock) for 2 hours prior to laser microirradiation. To generate localised DNA damage, selected regions within the nucleus were micro-irradiated with 10 iterations of a laser at 405 nm with 100% power. The cells were subjected to quantitative analysis by time-lapse microscopy. FIG. 10A: representative images used for the analysis shown in the graph in FIG. 10B.
FIGS. 11A and 11B show how CDK12 recruitment to DDR sites depends on PARP1 activity. U2OS cells were transfected with mCherry-CDK12 plasmid and pre-treated with Olaparib (1 µM), Veliparib (10 μM) or DMSO (mock) for 1 hour before laser microirradiation. To generate localised DNA damage, selected regions within the nucleus were micro-irradiated with 10 iterations of a laser at 405 nm with 100% power. The cells were then subjected to quantitative analysis by time-lapse microscopy.
U2OS cells were transfected with a vector encoding mCherry-CDK12. Cells were micro-irradiated with a laser beam to induce DNA breaks confined to appropriately selected nuclear areas.
In order to inhibit RNA-pol2, the cells were pre-treated with either (i) triptolide (a TFIIH inhibitor that blocks the start of transcriptional) or (ii) DRB (5,6-dichlorobenzimidazole riboside, a DSIF inhibitor that prevents transcriptional elongation).
U2OS cells were transfected with a vector encoding for mCherry-CDK12. Cells were micro-irradiated with a laser beam to induce DNA breaks confined to selected nuclear areas. In order to inhibit CDK12, the cells were pre-treated with THZ531, a covalent inhibitor of CDK12.
U2OS cells were transfected with a vector encoding for mCherry-CDK12. The cells were micro-irradiated with a laser beam to induce DNA breaks in selected nuclear areas. To inhibit the DDR response, the cells were pre-treated with an ATM inhibitor (KU-55933) or an ATR inhibitor (VE-821).
U2OS cells, transfected with a vector encoding for mCherry-CDK12, were micro-irradiated with a laser beam to induce DNA breaks confined to selected nuclear areas. To inhibit PARP1, the cells were pre-treated with Olaparib and Veliparib.

[4] = tested on: MS2 reporter transcription in U2OS-TRE-I-Sce1 cells; experiment: MS2 reporter gene transcription at damaged locus (YFP-MS2 / pCherry-tTA-ER co-localisation); conditions: +SceI, OHT, THZ531 for 24 h
Text: The fixed cells were processed to detect the γH2A. X signal by immunofluorescence. […] U2OS-TRE-I-Sce1 cells were transfected with plasmids encoding (i) YFP-MS2 (a chimeric gene produced from MS2 cDNA fused with YFP cDNA), (ii) mCherry-tTA-ER and (iii) the restriction enzyme Sce-1. Transcription was activated by addition of OHT and monitored by detecting positive nuclear foci for YFP signal. Sce1-induced DSBs were visualised by immunofluorescence staining of the phosphorylated form of the histone H2Ax (γH2A. X), a marker for DNA break detection and DNA damage response (DDR) signalling pathway activation.

**Q.** How did the “CDK12 recruitment to DDR foci proximal to promoters” value [1] turn out when OC[C@H]1O[C@@H](n2cnc3cc(Cl)c(Cl)cc32)[C@H](O)[C@@H]1O [DRB, 5,6-dichlorobenzimidazole riboside] was run?
**A.** The value was “reduced its recruitment to damaged foci”.

**Q.** And the “recruitment of mCherry-CDK12 at Sce-1 damaged locus” value ([2]; DRB 100 uM)?
**A.** The value was “prevents the recruitment of mCherry-CDK12 at damaged areas”.

**Q.** What about the “recruitment of mCherry-CDK12 at laser-damaged areas” value ([3]; DRB 100 uM) of the same compound?
**A.** The value was “prevents the recruitment of mCherry-CDK12 at damaged areas”.

**Q.** How did the “localisation of CDK12 at laser-damaged sites” value ([3]; KU-55933 (ATMi) 10 μM) turn out when O=c1cc(-c2cccc3c2Sc2ccccc2S3)oc(N2CCOCC2)c1 [KU-55933] was run?
**A.** Its value is “Neither of the two inhibitor affected the localisation of CDK12 at the damaged sites”.

**Q.** With O=C(c1cc(Cc2n[nH]c(=O)c3ccccc23)ccc1F)N1CCN(C(=O)C2CC2)CC1 [Olaparib] as the compound, how does the “localisation of CDK12 at laser-damaged DNA sites” value ([3]; Olaparib 1 µM) read?
**A.** Its value is “inhibited the localisation of CDK12 at damaged DNA sites”.

**Q.** For CN(C)C/C=C/C(=O)Nc1ccc(C(=O)N2CCC[C@@H](Nc3ncc(Cl)c(-c4c[nH]c5ccccc45)n3)C2)cc1 [THZ531], which “recruitment of CDK12 at DDR foci (laser)” value ([3]; THZ531 100 nM, 24 hours, BrdU pre-sensitised) is on record?
**A.** The value was “did not affect the recruitment of CDK12 at DDR foci”.

**Q.** What about the “MS2 reporter expression at damaged locus” value [4] of the same compound?
**A.** The value was “reactivated MS2 reporter expression”.

**Q.** Which “localisation of CDK12 at laser-damaged sites” value ([3]; VE-821 (ATRi) 10 µM) does the source give for CS(=O)(=O)c1ccc(-c2cnc(N)c(C(=O)Nc3ccccc3)n2)cc1 [VE-821] here?
**A.** Its value is “Neither of the two inhibitor affected the localisation of CDK12 at the damaged sites”.

**Q.** For C[C@]1(c2nc3c(C(N)=O)cccc3[nH]2)CCCN1 [Veliparib], which “localisation of CDK12 at laser-damaged DNA sites” value ([3]; Veliparib 10 μM) is on record?
**A.** The value was “inhibited the localisation of CDK12 at damaged DNA sites”.

**Q.** Which “recruitment of mCherry-CDK12 at Sce-1 damaged locus” value ([2]; TRIPTOLIDE 1 uM) does the source give for CC(C)[C@]12O[C@H]1[C@@H]1O[C@]13[C@]1(O[C@H]1C[C@H]1C4=C(CC[C@@]13C)C(=O)OC4)[C@@H]2O [triptolide] here?
**A.** The value was “prevents the recruitment of mCherry-CDK12 at damaged areas”.

**Q.** What about the “recruitment of mCherry-CDK12 at laser-damaged areas” value ([3]; Triptolide 1 uM) of the same compound?
**A.** The value was “prevents the recruitment of mCherry-CDK12 at damaged areas”.
